Assay results: article PMC1904258, “X-ray Structures of the Signal Recognition Particle Receptor Reveal Targeting Cycle Intermediates” (PLoS ONE, 2007)

Biological target: T1, FtsY (T. aquaticus) (Thermus aquaticus, UniProt P83749)
T1 construct: FtsY retaining N-terminal helix N1 (naturally lacks A-domain), NG domains; expressed in E. coli BL21(DE3) from pET21; apo/GMPPNP NCS dimer in crystal
T1 sequence (P83749 1-304): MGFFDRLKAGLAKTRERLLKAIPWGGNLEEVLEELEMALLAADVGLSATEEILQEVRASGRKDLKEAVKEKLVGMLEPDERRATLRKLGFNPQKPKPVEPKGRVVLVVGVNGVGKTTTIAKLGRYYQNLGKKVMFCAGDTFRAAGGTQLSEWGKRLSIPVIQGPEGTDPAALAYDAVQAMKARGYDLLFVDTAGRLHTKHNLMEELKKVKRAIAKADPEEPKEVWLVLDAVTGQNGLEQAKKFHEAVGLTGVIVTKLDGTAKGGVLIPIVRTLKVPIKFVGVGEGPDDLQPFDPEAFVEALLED
Assay: X-ray crystal structure of complex ([…] and […] Å)
Format: binding
Conditions: non-hydrolysable GTP analogue; form I (F1, 2.2 Å) grown with MgCl2, no ordered Mg2+; form II (F2, 2.3 Å) without Mg2+; GTPase active site, one monomer of the dimer

## Nc1nc2c(ncn2[C@@H]2O[C@H](COP(=O)(O)OP(=O)(O)NP(=O)(O)O)[C@@H](O)[C@H]2O)c(=O)[nH]1 [GMPPNP]
  X-ray crystal structure of complex (2.2 and 2.3 Å): one monomer in apo-FtsY and the other FtsY monomer bound with GMPPNP
